Results taken from patent US6440963B1, “Use of selective COX-2 inhibitors for the treatment of urinary incontinence” (Recordati S.A., Chemical and Pharmaceutical Company, priority 2001, dated 2002).

Columns and labels:
[1] = test system: rhythmic bladder voiding contractions; assay: Volume-induced rhythmic bladder voiding contractions in anaesthetized rats; type: in vivo, rat; conditions: for Bladder quiescence (min ± S.E.): 60 min observation; for ED10 min (dose inducing a 10 min absence of bladder contractions) / Potency in inhibiting bladder voiding contractions (ED10min) compared with morphine: i.v.; for ED10 min (dose inducing a 10 min absence of bladder contractions): linear regression analysis; for Potency in inhibiting bladder voiding contractions (ED10min) compared with morphine: relative to morphine
Method: In this method, the urinary bladder is catheterized through the external urethra with a polyethylene tubing filled with physiological saline. The external urethra is then ligated and connected to a pressure recording device. […] Test compounds are then administered intravenously and their effect evaluated for the following 60 min.
The animals were housed with free access to food and water and maintained on a 12 h alternating light-dark cycle at 22-24° C. for at least one week, except during the experiment. […] The catheter was then tied in place with a ligature around the external urethral orifice and connected to a conventional pressure transducer (Statham P23 ID/P23 XL). […] The bladder was then filled via the recording catheter with incremental volumes of warm (37° C.) saline until reflex bladder voiding contractions occurred (usually upon addition of 0.8-1.5 ml saline).
Bioactivity was assessed in individual animals (using 6-10 rats per dose) by measuring the duration of bladder quiescence (i.e., the duration of time during which no contractions occurred) over a 60 min period.

[2] = test system: detrusor instability; conditions: cited from earlier work; for Effect in patients with detrusor instability: double-blind controlled studies; for Gastrointestinal side effects: patients with detrusor instability
[3] = test system: bladder reflexes; conditions: following surgery or experimentally-induced inflammation; cited from earlier work
[4] = test system: isolated rat bladder strips; conditions: 1×10^−4M, 40 mM potassium; cited from earlier work
[5] = test system: bladder contractions elicited by arachidonic acid; conditions: arachidonic acid on serosal surface of bladder; cited from earlier work

Cc1ccc(-c2cc(C(F)(F)F)nn2-c2ccc(S(N)(=O)=O)cc2)cc1 [Compound B]
Bladder quiescence (min ± S.E.) ([1]; 0.01 mg/kg i.v.): 4.05 ± 0.68 min
Bladder quiescence (min ± S.E.) ([1]; 0.1 mg/kg i.v.): 10.53 ± 2.04 min
Bladder quiescence (min ± S.E.) ([1]; 1.0 mg/kg i.v.): 28.35 ± 5.19 min
ED10 min (dose inducing a 10 min absence of bladder contractions) [1]: ED10 min = 0.044 mg/kg
Potency in inhibiting bladder voiding contractions (ED10min) compared with morphine [1]: similar

COc1ccc2c(c1)c(CC(=O)O)c(C)n2C(=O)c1ccc(Cl)cc1 [Indomethacin]
Bladder quiescence (min ± S.E.) ([1]; 0.3 mg/kg i.v.): 4.39 ± 1.08 min
Bladder quiescence (min ± S.E.) ([1]; 1.0 mg/kg i.v.): 7.91 ± 1.79 min
Bladder quiescence (min ± S.E.) ([1]; 3.0 mg/kg i.v.): 35.00 ± 5.78 min
ED10 min (dose inducing a 10 min absence of bladder contractions) [1]: ED10 min = 0.652 mg/kg
Effect in patients with detrusor instability [2]: favorable effects
Gastrointestinal side effects [2]: high incidence of gastrointestinal side effects

CS(=O)(=O)Nc1ccc([N+](=O)[O-])cc1OC1CCCCC1 [NS-398]
Effect on bladder reflexes [3]: normalized bladder reflexes

CN1CC[C@]23c4c5ccc(O)c4O[C@H]2[C@@H](O)C=C[C@H]3[C@H]1C5 [Morphine]
Bladder quiescence (min ± S.E.) ([1]; 0.01 mg/kg i.v.): 2.76 ± 0.93 min
Bladder quiescence (min ± S.E.) ([1]; 0.03 mg/kg i.v.): 6.89 ± 2.11 min
Bladder quiescence (min ± S.E.) ([1]; 0.1 mg/kg i.v.): 13.83 ± 2.40 min
Bladder quiescence (min ± S.E.) ([1]; 0.3 mg/kg i.v.): 18.17 ± 3.60 min
ED10 min (dose inducing a 10 min absence of bladder contractions) [1]: ED10 min = 0.050 mg/kg

CS(=O)(=O)c1ccc(C2=C(c3ccccc3)C(=O)OC2)cc1 [Compound C]
Bladder quiescence (min ± S.E.) ([1]; 0.03 mg/kg i.v.): 3.75 ± 0.96 min
Bladder quiescence (min ± S.E.) ([1]; 0.1 mg/kg i.v.): 4.85 ± 1.80 min
Bladder quiescence (min ± S.E.) ([1]; 0.3 mg/kg i.v.): 16.44 ± 6.13 min
ED10 min (dose inducing a 10 min absence of bladder contractions) [1]: ED10 min = 0.135 mg/kg
Potency in inhibiting bladder voiding contractions (ED10min) compared with morphine [1]: slightly lower

CS(=O)(=O)Nc1ccc([N+](=O)[O-])cc1Oc1ccccc1 [nimesulide]
Inhibition of contractility [4]: 42%

CC(C(=O)O)c1ccc(-c2ccccc2)c(F)c1 (centres unmarked) [flurbiprofen]
Effect in patients with detrusor instability [2]: favorable effects
Gastrointestinal side effects [2]: high incidence of gastrointestinal side effects

C[C@H](C(=O)O)c1cccc(C(=O)c2ccccc2)c1 [dexketoprofen]
Effect on bladder contractions elicited by arachidonic acid [5]: blocked
